# Reference: patent publication US20220153732A1, “PROTEIN SECRETION INHIBITORS” (KEZAR LIFE SCIENCES, priority 2019, published 2022)
# Read-outs that look alike come from different tables or passages of the source.
# Assays:
# Assay type in all cases: cell-based
# [1] = tested on: TNFα-FL/Gaussia Luciferase; test: Dox Induced TNFα-FL-Gluc Assay
# Outline: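 A stable T-REx cell line carrying doxycycline-inducible TNFα-FL/Gaussia luciferase was plated the day before assay. Compound dilutions in DMSO/media containing doxycycline were then added and incubated at 37° C, 5% CO2.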
# [2] = tested on: IL-2-FL/Gaussia Luciferase; test: Dox Induced IL2-FL-Gluc Assay
# Outline: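 Stable T-REx cell line expressing doxycycline-inducible IL-2-FL/Gaussia luciferase cDNA, plated the day before assay. Compound dilutions in DMSO/media containing doxycycline added and incubated at 37° C., 5% CO2. Unspecified stereochemistry means data refer to a stereoisomer mixture.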
# [3] = tested on: human multiple myeloma cell line U266B1; test: U266 Cell Viability Assay; conditions: U-266, 48 hr, U266B1 cells, Celltiter-Glo, read-out: 48 hr U266 Viability Celltiter-Glo: Mean EC50
# Outline: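 U266B1 myeloma cells treated with compound dilutions in DMSO/media for 48 h at 37 °C, 5% CO2. Viability read by CellTiter-Glo luminescence. Stereochemically undefined structures were tested as stereoisomer mixtures.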
# [4] = tested on: HER3-ss+4aa/Gaussia Luciferase; test: Dox-Induced Her3-ss-Gluc Assay
# Outline: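 Stable T-REx cell line carrying a doxycycline-regulated HER3-ss+4aa/Gaussia luciferase insert, plated the day before assay. Compound dilutions in DMSO/media with doxycycline added, then incubated at 37° C., 5% CO2. Stereoisomer mixtures tested where stereochemistry is not drawn.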
# [5] = tested on: PD1-ss+10aa/Gaussia Luciferase; test: Dox-Induced PD1-ss-Gluc Assay
# Outline: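 Stable cell line carrying PD1-ss+10aa/Gaussia luciferase cDNA under T-REx (doxycycline-inducible) control, plated the day before assay. Compound dilutions in DMSO/media containing doxycycline added and incubated at 37° C, 5% CO2. Undefined stereocentres: data refer to stereoisomer mixtures.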
# [6] = tested on: human multiple myeloma cell line NCI-H929; test: H929 Cell Viability Assay; conditions: 48 hr, NCI-H929 cells, Celltiter-Glo, read-out: 48 hr H929 Viability Celltiter-Glo: Mean EC50
# Procedure: Plates were incubated at 37° C., 5% CO2 for 48 hours. After 48 hours, Celltiter-Glo® (Promega) was added to each well and luciferase signal was quantified using Tecan Infinite M1000 Pro for cell viability determination.
# For chemical structures that include one or more stereoisomers, but are illustrated without indicating stereochemistry, the assay data refers to a mixture of stereoisomers.
# [7] = 24 hr doxycycline induction, 293FRT/TO cells, Gaussia luciferase signal; read-out: 24 hr Dox Inducible TNFaFLGluc 293FRT/TO: Mean IC50
# [8] = 24 hr doxycycline induction, 293FRT/TO cells, Gaussia luciferase signal; read-out: 24 hr Dox Inducible IL2FLGIuc 293FRT/TO: Mean IC50
# [9] = 24 hr doxycycline induction, 293FRT/TO cells, Gaussia luciferase signal; read-out: 24 hr Dox Inducible Her3(ss + 4)Gluc 293FRT/TO: Mean IC50
# [10] = 24 hr doxycycline induction, 293FRT/TO cells, Gaussia luciferase signal; read-out: 24 hr Dox Inducible PD1ssGluc 293FRT/TO: Mean IC50
# [11] = 24 hr, doxycycline-induced, 293FRT/TO cells; read-out: 24 hr Dox Inducible TNFaFLGluc 293FRT/TO: Mean IC50
# [12] = 24 hr, doxycycline-induced, 293FRT/TO cells; read-out: 24 hr Dox Inducible IL2FLGIuc 293FRT/TO: Mean IC50
# [13] = 24 hr, doxycycline-induced, 293FRT/TO cells; read-out: 24 hr Dox Inducible Her3(ss + 4)Gluc 293FRT/TO: Mean IC50
# [14] = 24 hr, doxycycline-induced, 293FRT/TO cells; read-out: 24 hr Dox Inducible PD1ssGluc 293FRT/TO: Mean IC50
"IC50 [1, 7]","IC50 [2, 8]",EC50 [3],"IC50 [4, 9]","IC50 [5, 10]",EC50 [6],"IC50 [1, 11]","IC50 [2, 12]","IC50 [4, 13]","IC50 [5, 14]",Structure (SMILES),"IC50 ([1]; read-out: 24 hr Dox Inducible TNFaFLGluc 293FRT/TO: Mean IC50; 24 hr, doxycycline-induced, 293FRT/TO cells)","IC50 ([2]; read-out: 24 hr Dox Inducible IL2FLGIuc 293FRT/TO: Mean IC50; 24 hr, doxycycline-induced, 293FRT/TO cells)","IC50 ([4]; read-out: 24 hr Dox Inducible Her3(ss + 4)Gluc 293FRT/TO: Mean IC50; 24 hr, doxycycline-induced, 293FRT/TO cells)","IC50 ([5]; read-out: 24 hr Dox Inducible PD1ssGluc 293FRT/TO: Mean IC50; 24 hr, doxycycline-induced, 293FRT/TO cells)"
19.6 µM,0.935 µM,> 25 µM,1.24 µM,0.488 µM,> 25 µM,,,,,"CC(F)(F)c1csc(NC(=O)c2cccn2Cc2ccncc2)n1 [Compound A29, N-(4-(1,1-difluoroethyl)thiazol-2-yl)-1-(pyridin-4-ylmethyl)-1H-pyrrole-2-carboxamide]",,,,
1.74 µM,0.599 µM,> 25 µM,0.463 µM,0.161 µM,10.4 µM,,,,,O=C(Nc1nc([C@H]2CCC[C@@H](c3ccccc3)C2)cs1)c1cccn1Cc1ccncc1 [Compound A270],,,,
1.35 µM,0.718 µM,> 25 µM,0.461 µM,0.226 µM,15.1 µM,,,,,"C[C@@H](OC(C)(C)c1csc(NC(=O)c2cccn2Cc2ccncc2)n1)c1ccccc1 [Compound A18, (R)-N-(4-(2-(1-phenylethoxy)propan-2-yl)thiazol-2-yl)-1-(pyridin-4-ylmethyl)-1H-pyrrole-2-carboxamide]",,,,
,,> 25 µM,,,> 25 µM,> 25 µM,> 25 µM,> 25 µM,> 25 µM,CCN(C(=O)c1cccn1Cc1ccncc1)c1nccs1 [Compound B14],,,,
23.7 µM,6.77 µM,> 25 µM,8.4 µM,0.098 µM,17.7 µM,,,,,O=C(Nc1nc(/C=C/c2ccccn2)cs1)c1cccn1Cc1ccncc1 [Compound A164],,,,
> 25 µM,> 25 µM,> 25 µM,> 25 µM,> 25 µM,> 25 µM,,,,,"CC(=O)N1CCC(CCCn2cccc2C(=O)Nc2nc(C(C)(C)OC(C)C)cs2)CC1 [Compound A101, 1-(3-(1-acetylpiperidin-4-yl)propyl)-N-(4-(2-isopropoxypropan-2-yl)thiazol-2-yl)-1H-pyrrole-2-carboxamide]",,,,
2.47 µM,1.5 µM,> 25.8 µM,0.859 µM,0.287 µM,19.4 µM,,,,,O=C(Nc1nc([C@@H]2CCCN2c2ccccc2)cs1)c1cccn1Cc1ccncc1 [Compound A276],,,,
,,> 25 µM,,,> 25 µM,> 25 µM,> 25 µM,> 25 µM,9.1 µM,"Cc1cc(NC(=O)c2cccn2Cc2ccncc2)no1 [Compound B8, N-(5-methylisoxazol-3-yl)-1-(pyridin-4-ylmethyl)-1H-pyrrole-2-carboxamide]",,,,
7.08 µM,0.32 µM,> 25 µM,0.426 µM,0.302 µM,11.9 µM,,,,,"CC(C)OC(C)(C)c1csc(NC(=O)c2cccn2CCOc2ccncc2)n1 [Compound A226, N-(4-(2-isopropoxypropan-2-yl)thiazol-2-yl)-1-(2-(pyridin-4-yloxy)ethyl)-1H-pyrrole-2-carboxamide]",,,,
3.24 µM,1.01 µM,> 25 µM,0.535 µM,0.087 µM,7.7 µM,,,,,"CC(C)Oc1ccc(/C=C/c2csc(NC(=O)c3cccn3Cc3ccncc3)n2)cc1 [Compound A236, N-(4-(4-isopropoxystyryl)thiazol-2-yl)-1-(pyridin-4-ylmethyl)-1H-pyrrole-2-carboxamide]",,,,
,,> 25 µM,,,9.73 µM,4.17 µM,0.948 µM,0.902 µM,0.215 µM,O=C(Nc1nc([C@H]2C[C@@H](O)CN2c2ccccc2)cs1)c1cccn1Cc1ccncc1 [Compound A321],,,,
> 25 µM,11.6 µM,> 25 µM,> 21.9 µM,10.4 µM,18.3 µM,,,,,"O=C(Nc1nc(Cc2ccccc2)cs1)c1cccn1CCCc1cccnc1 [Compound A187, N-(4-benzylthiazol-2-yl)-1-(3-(pyridin-3-yl)propyl)-1H-pyrrole-2-carboxamide]",,,,
7.79 µM,0.445 µM,> 25 µM,0.271 µM,0.055 µM,11.8 µM,,,,,"COc1ccc(/C=C/c2csc(NC(=O)c3cccn3Cc3ccncc3)n2)cc1F [Compound A240, N-(4-(3-fluoro-4-methoxystyryl)thiazol-2-yl)-1-(pyridin-4-ylmethyl)-1H-pyrrole-2-carboxamide]",,,,
> 25 µM,0.341 µM,> 25 µM,0.216 µM,0.063 µM,4.49 µM,,,,,"O=C(Nc1nc(/C=C/c2ccc3c(c2)OCO3)cs1)c1cccn1Cc1ccncc1 [Compound A234, N-(4-(2-(benzo[d][1,3]dioxo1-5-yl)vinyl)thiazol-2-yl)-1-(pyridin-4-ylmethyl)-1H-pyrrole-2-carboxamide]",,,,
6.93 µM,1.28 µM,> 25 µM,1.13 µM,0.53 µM,14 µM,,,,,C/C(=C\c1csc(NC(=O)c2cccn2Cc2ccncc2)n1)c1ccccc1 [Compound A252],,,,
,,20.3 µM,,,23.8 µM,13.1 µM,9.58 µM,6.01 µM,0.042 µM,Cc1cccnc1/C=C/c1csc(NC(=O)c2cccn2Cc2ccncc2)n1 [Compound A347],,,,
> 25 µM,> 25 µM,> 25 µM,> 25 µM,13.1 µM,> 25 µM,,,,,"CCc1sc(NC(=O)c2cccn2Cc2ccncc2)nc1CN1CCN(S(=O)(=O)CC)CC1 [Compound A92, N-(5-ethyl-4-((4-(ethylsulfonyl)piperazin-1-yl)methyl)thiazol-2-yl)-1-(pyridin-4-ylmethyl)-1H-pyrrole-2-carboxamide]",,,,
5 µM,1.27 µM,> 25 µM,1.13 µM,0.538 µM,> 23.9 µM,,,,,O=C(Nc1nc([C@H]2CCCN2Cc2ccccc2)cs1)c1cccn1Cc1ccncc1 [Compound A278],,,,
> 25 µM,> 25 µM,> 25 µM,> 25 µM,> 25 µM,> 25 µM,,,,,Cc1cc(C(=O)Nc2nc(C(C)(C)OC(C)C)cs2)n(Cc2ccncc2)n1 [Compound A103],,,,
,,> 25 µM,,,17.9 µM,1.35 µM,0.334 µM,0.835 µM,0.374 µM,O=C(Nc1nc([C@H]2CCN2c2ccccc2)cs1)c1cccn1Cc1ccncc1 [Compound A336],,,,
12.6 µM,1.21 µM,> 25 µM,1.56 µM,0.858 µM,> 25 µM,,,,,"CC(C)(OCC1CCOCC1)c1csc(NC(=O)c2cccn2Cc2ccncc2)n1 [Compound A40, 1-(pyridin-4-ylmethyl)-N-(4-(2-((tetrahydro-2H-pyran-4-yl)methoxy)propan-2-yl)thiazol-2-yl)-1H-pyrrole-2-carboxamide]",,,,
,,> 25 µM,,,> 25 µM,> 25 µM,> 25 µM,> 25 µM,> 25 µM,NC(=O)Cc1csc(NC(=O)c2cccn2Cc2ccncc2)n1 [Compound B18],,,,

Structure (SMILES),"IC50 [1, 7]","IC50 [2, 8]",EC50 [3],"IC50 [4, 9]","IC50 [5, 10]",EC50 [6],"IC50 [1, 11]","IC50 [2, 12]","IC50 [4, 13]","IC50 [5, 14]","IC50 ([1]; read-out: 24 hr Dox Inducible TNFaFLGluc 293FRT/TO: Mean IC50; 24 hr, doxycycline-induced, 293FRT/TO cells)","IC50 ([2]; read-out: 24 hr Dox Inducible IL2FLGIuc 293FRT/TO: Mean IC50; 24 hr, doxycycline-induced, 293FRT/TO cells)","IC50 ([4]; read-out: 24 hr Dox Inducible Her3(ss + 4)Gluc 293FRT/TO: Mean IC50; 24 hr, doxycycline-induced, 293FRT/TO cells)","IC50 ([5]; read-out: 24 hr Dox Inducible PD1ssGluc 293FRT/TO: Mean IC50; 24 hr, doxycycline-induced, 293FRT/TO cells)"
CC(C)(C)[Si](O[C@@H]1CCN(c2ccccc2)[C@@H]1c1csc(NC(=O)c2cccn2Cc2ccncc2)n1)(c1ccccc1)c1ccccc1 [Compound A352],,,> 25 µM,,,0.452 µM,,,,,0.062 µM,0.016 µM,0.019 µM,0.008 µM
